Experimental findings from article PMC6037691, “Selenazolyl-hydrazones as Novel Selective MAO Inhibitors With Antiproliferative and Antioxidant Activities: Experimental and In-silico Studies” (Frontiers in Chemistry, 2018) are described below.

Each structure is given as a SMILES string.

The nature of data set [1]: Total reducing power (TRP), modified potassium ferricyanide reduction method. The note with it: concentration providing 0.500 of absorbance at 700 nm; mean ± SD, n = 3. As for the experimental part: The mixture containing 0.5 mL of phosphate buffer (0.2 M, pH = 6.6), 0.5 mL of K3[Fe(CN)6] (1%; w/v) and 0.5 mL of the samples (100–1,500 μM) was incubated at 50°C for 20 min. A volume of 0.5 mL of trichloroacetic acid (TCA, 10%; w/v), 0.5 mL of Milli-Q water and 0.5 mL of FeCl3 (0.1%; w/v) was added, followed by intensive vortexing. The absorbance of the resulting mixture was measured after 60 min at 700 nm using phosphate buffer as blank (Oyaizu, [1986]).
(§1) Volume of 0.4 mL of sample solution (50–1,000 μM) was mixed with 1.6 mL of reagent solution [0.6 M H2SO4, 28 mM Na3PO4, and 4 mM (NH4)2MoO4] and resulting mixtures were incubated at 95°C for 90 min. The cooled reaction mixtures were then centrifuged for 10 min (3,000 rpm). The absorbance of the supernatant solution was measured, 1 h after centrifugation, at 695 nm against reagent solution as blank. An increased absorbance in reading in both assays indicated increased antioxidant power, expressed as EC50 values (the sample concentration giving absorbance of 0.500 from the graph of absorbance at 700 nm or 695 nm against compound concentration) (Prieto et al., [1999]).

Data set [2] concerns A549 (non-small cell lung). Put plainly: Antiproliferative activity, A549. The following applies: Homo sapiens. Format: cell-based, human. As for the experimental part:
(§2) The in vitro antiproliferative activity of investigated compounds was evaluated against six human solid tumor cell lines: A549 (non-small cell lung), HBL-100, (breast), HeLa (cervix), SW1573 (non-small cell lung), as drug sensitive lines, T-47D (breast) and WiDr (colon) as drug resistant lines. These cell lines were a kind gift from Prof. G. J. Peters (VU Medical Center, Amsterdam, The Netherlands). For selectivity studies, the human fibroblasts BJ-hTert cell line was used, which was obtained from Dr. R. Freire (HUC, Tenerife, Canary Islands). Cells were kept in culture medium under standard conditions: RPMI 1640 medium, fetal bovine serum (5%), glutamine (2 mM), penicillin G (100 units/mL) and streptomycin (0.1 mg/mL). Antiproliferative tests were conducted as described earlier (Skehan et al., [1990]; Miranda et al., [2006]). Tested compounds were dissolved in DMSO at an initial concentration of 40 mM. DMSO was used as negative control (0.25% v/v). Antiproliferative activity of the compounds was expressed as GI50, which is the concentration of the compound that inhibits 50% of the culture growth.

In a further data set the test system is HBL-100 (breast). The data set can be described thus: Antiproliferative activity, HBL-100. Format: cell-based, human. The following applies: Homo sapiens. As for the experimental part:
as §2

The nature of data set [3]: Total antioxidant capacity (TAOC), modified phosphomolybdenum method. The following applies: concentration providing 0.500 of absorbance at 695 nm; mean ± SD, n = 3. As for the experimental part:
as §1

In a further data set the target is T1, MAO B (Homo sapiens, UniProt P27338).
T1 construct: purchased Sigma-Aldrich
T1 sequence (P27338 1-520): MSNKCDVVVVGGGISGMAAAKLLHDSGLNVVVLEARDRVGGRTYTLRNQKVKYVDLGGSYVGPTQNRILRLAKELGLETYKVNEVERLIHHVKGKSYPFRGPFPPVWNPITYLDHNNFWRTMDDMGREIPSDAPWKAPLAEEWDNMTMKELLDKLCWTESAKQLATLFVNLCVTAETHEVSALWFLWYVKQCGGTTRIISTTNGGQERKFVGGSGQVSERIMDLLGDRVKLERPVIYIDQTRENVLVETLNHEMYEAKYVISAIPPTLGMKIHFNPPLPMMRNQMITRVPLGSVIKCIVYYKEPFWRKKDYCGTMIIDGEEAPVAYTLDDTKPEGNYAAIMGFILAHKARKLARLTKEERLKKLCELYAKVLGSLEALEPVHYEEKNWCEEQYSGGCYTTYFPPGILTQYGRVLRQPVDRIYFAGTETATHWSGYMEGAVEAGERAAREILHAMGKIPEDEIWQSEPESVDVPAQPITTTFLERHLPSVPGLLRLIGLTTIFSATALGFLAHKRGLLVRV
The data set can be described thus: MAO B inhibition, discontinuous fluorimetric kynuramine assay. Format: biochemical. The following applies: 1 μM inhibitor; mean ± SD, n = 2; normalized to control. As for the experimental part: MAO A and B inhibition capacities were investigated using a discontinuous fluorimetric assay (Meiring et al., [2013]) as described previously by using human recombinant membrane-bound MAO purchased from Sigma-Aldrich (Affini et al., [2018]). Briefly, remained enzyme activity with inhibitor, either 1 μM (one-point) or concentrations ranging from 0.0001 to 10 μM, was assessed in the presence of kynuramine [2 × KM, KM = 20 μM (MAO A), KM = 30 μM (MAO B)] in potassium phosphate buffer (pH 7.4). Reactions were started by addition of enzyme and stopped by manual addition of sodium hydroxide (2 N) after 20 min. Enzyme activity was determined by detection of 4-hydroxyquinoline (λEx = 320 nm, λEm = 405 nm). Data were analyzed using GraphPad PRISM 6. For one-point measurements data were calculated as percentage of control and expressed as mean ± standard deviation (%). […] Data were obtained from two (one-point measurements) or at least three (IC50 values) independent experiments, each performed in duplicates.

A short description of data set [4]: Oxygen radical absorbance capacity (ORAC) assay. The following applies: Trolox equivalents; mean ± SD, n = 3. As for the experimental part:
A modification of original protocol was used (Ou et al., [2001]). Stock solutions of fluorescein substrate (5 μM) and free radical generator AAPH (0.5 M) were prepared in 75 mM potassium phosphate buffer (pH = 7.4). Volume of 100 μL of sample solutions or Trolox in DMSO (20 μM) were mixed with 1,485 μL of buffer and 15 μL of fluorescein solution. The 30 min reaction at 37°C was initiated by adding 250 μL of AAPH solution. Fluorescence conditions were as follows: excitation and emission wavelengths 485 and 511 nm, respectively, slits 2 nm. The relative sample ORAC value was expressed as Trolox equivalents (TE).

For another data set, the system named is T-47D (breast). Put plainly: Antiproliferative activity, T-47D. In kind it is cell-based, human. The note with it: Homo sapiens, T47D, T-47D. As for the experimental part:
as §2

A further data set deals with WiDr (colon). Put plainly: Antiproliferative activity, WiDr. In kind it is cell-based, human. The following applies: Homo sapiens. As for the experimental part:
as §2

The test system of another data set is HeLa (cervix). The data set can be described thus: Antiproliferative activity, HeLa. Format: cell-based, human. The following applies: Homo sapiens. As for the experimental part:
as §2

Data set [5] has as its system SW1573 (non-small cell lung). The data set can be described thus: Antiproliferative activity, SW1573. Format: cell-based, human. The following applies: for GI50: Homo sapiens. As for the experimental part:
as §2

The test system of data set [6] is human fibroblasts BJ-hTert cell line. Put plainly: Selectivity, non-transformed fibroblasts BJ-hTert. In kind it is cell-based. The following applies: Fibroblast; BJ-hTert normal human cell line; concentrations up to 100 μM. As for the experimental part:
as §2

`Cc1ccc(-c2c[se]c(NN=Cc3cccc([N+](=O)[O-])c3)n2)cc1` [Compound 3-Me, 2-(2-(3-nitrobenzylidene)hydrazinyl)-4-(p-tolyl)-1,3-selenazole]: the melting point was in the range of 203 to 206 °C. In addition, the half-maximal effective concentration (EC50) in data set [1] was determined as 480 ± 50 µM. In addition, it took 44 ± 15 µM to inhibit growth in data set [2] by half (GI50). The molecule also returned a GI50 in the data set with HBL-100 (breast) of 60 ± 9.5 µM. In data set [3], this molecule registered an EC50 of 571 ± 45 µM. This molecule also registered an inhibition at 1 µM on MAO B of 7.4 ± 27%. For the same molecule, the ORAC in data set [4] is on record as 0.83 ± 0.05 TE. In the data set on T-47D (breast), growth was halved (GI50) at 46 ± 9.7 µM. For the same molecule, in the data set on WiDr (colon), growth was halved (GI50) at 55 ± 19 µM. It took 31 ± 4 µM to inhibit growth in the data set with HeLa (cervix) by half (GI50). This molecule displayed a GI50 in [5] of 18 ± 4.5 µM. Also, the GI50 in data set [6] is above 100 µM.
`COc1ccc(-c2c[se]c(NN=Cc3cccc([N+](=O)[O-])c3)n2)cc1` [Compound 3-OMe, 4-(4-methoxyphenyl)-2-(2-(3-nitrobenzylidene)hydrazinyl)-1,3-selenazole]: the melting point fell in the range of 201 to 203 °C. A half-maximal effect in [1] (EC50) was put at 488 ± 46 µM. This molecule also yielded a GI50 in data set [2] of 52 ± 1 µM. In the data set with HBL-100 (breast), the GI50 is above 100 µM. In addition, the 50% effective concentration (EC50) in data set [3] was 632 ± 50 µM. The same molecule yielded an inhibition at 1 µM on MAO B of 23.8 ± 7.7%. In addition, the ORAC in data set [4] worked out at 0.86 ± 0.07 TE. The GI50 in the data set on T-47D (breast) came out at 67 ± 2.2 µM. This molecule registered a GI50 in the data set with WiDr (colon) above 100 µM. For the same molecule, the GI50 in the data set on HeLa (cervix) was 26 ± 2 µM. Besides, in data set [5], the “antiproliferative activity class SW1573” value was “good activity (good activity (GI50 = 1–10 μM))” and the GI50 turned out to be 8.4 ± 0.2 µM. This molecule showed a GI50 in data set [6] above 100 µM.
